Experiments:
rTAAR1 = settings: read-out: EC50 Rat TAAR1; cited from earlier work
mTAAR1 = settings: read-out: EC50 Mouse TAAR1; cited from earlier work
[1] = cited from earlier work; for excitation in humans: doses of 100 mg (or greater)
hTAAR1 = target: T1, hTAAR1 (Homo sapiens, UniProt Q96RJ0); format: cell-based
T1 sequence (Q96RJ0 1-339): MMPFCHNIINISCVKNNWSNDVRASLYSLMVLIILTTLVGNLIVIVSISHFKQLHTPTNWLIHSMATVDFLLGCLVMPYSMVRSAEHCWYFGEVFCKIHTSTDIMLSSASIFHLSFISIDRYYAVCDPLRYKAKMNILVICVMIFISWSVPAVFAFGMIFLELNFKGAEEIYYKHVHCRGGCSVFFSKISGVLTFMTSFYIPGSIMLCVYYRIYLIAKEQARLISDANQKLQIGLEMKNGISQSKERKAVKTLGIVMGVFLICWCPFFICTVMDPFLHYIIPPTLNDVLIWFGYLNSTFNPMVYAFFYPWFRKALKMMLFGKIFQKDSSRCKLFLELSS

DAT = settings: read-out: EC50 in rat synaptosomes; reference not given; cited from earlier work

C[C@@H](N)Cc1ccccc1 [(R)-1, (R)-amphetamine]
EC50 (rTAAR1): 1400 ± 600 nM
EC50 (mTAAR1): 65 ± 53 nM

C[C@H](N)Cc1ccc2c(c1)OCO2 [(S)-3, (S)-3,4-methylenedioxyamphetamine]
excitation in humans [1]: excitation

COc1cc(C[C@H](C)N)c(OC)cc1C [(S)-8, (S)-4-methyl-2,5-dimethoxyamphetamine]
agonist activity at hTAAR1 (in words) (hTAAR1): lack of observed agonist activity

C[C@H](N)Cc1ccccc1 [(S)-1, (S)-amphetamine]
EC50 (rTAAR1): 1200 ± 70 nM
EC50 (mTAAR1): 2 ± 1 nM

COc1cc(C[C@H](C)N)c(OC)cc1Br [(S)-7, (S)-4-bromo-2,5-dimethoxyamphetamine]
effect in humans ([1]; doses of 0.5–1.0 mg): no effect

CN[C@@H](C)Cc1ccc2c(c1)OCO2 [(S)-4, (S)-3,4-methylenedioxymethamphetamine]
excitation in humans [1]: excitation

C[C@H](N)Cc1cccc(C(F)(F)F)c1 [(S)-6, (S)-norfenfluramine]
EC50 Human, potency to activate TAAR1 (hTAAR1): active ^*

Source: PMC3236098 (Bioorganic & medicinal chemistry, 2011)
